# Like-named read-outs stand apart in the source and are kept apart here.
# System: U937 cells
# Assay: Cellular assay in U937 cells, TNFα/zVAD.fmk-induced cell death (necroptosis), MTS readout
# Assay type: cell-based
# Conditions: Homo sapiens, U-937
# Text: Cellular Assay in U937 Cells to Measure the Activity of RIPK1-Inhibitors on Cell Death (Necroptosis).
# Upon TNF-Receptor I ligation, Ser/Thr kinase RIPK1 is recruited to a transient receptor complex I. Upon modification of RIPK1 which promotes activation of RIPK1, complex […] can form, that involves recruitment of RIPK3 and MLKL (mixed lineage-kinase domain-like protein) which then translocates from the cytosol to the plasma membrane to execute cell death (Cai, Z. et al, Nat. Cell Biol. (2014)16:55-65).
# Cell death was quantified in 96 well plates by determination of the amount of live cell using a CellTiter 96 AQueous reagent (Promega), a calorimetric method to measure the amount of live cells by reducing tetrazolium compound [3-(4,5-dimethylthiazol-2-yl)-5-(3-carboxymethoxyphenyl)-2-(4-sulfophenyl)-2H-tetrazolium, inner salt; MTS] into formazan. Absorbance of formazan was read at 490 nm. The inhibitory activity of the test compound was quantified in a concentration response curve (CRC) experiment. Compounds were obtained as 10 mM stock solutions and were diluted 1 to 10 volumes with DMSO to yield a 1 mM solution. From this solution 2 μl were diluted with 998 μl growth medium. 100 μl of 2 μM compound solution was further diluted sequentially with a dilution factor of 2.5 by adding 150 μl growth medium. A total of 10 concentrations were tested ranging from 10 μM to 0.26 nM or from 1 μM to 0.07 nM.
# U937 cells were cultured in RPM11640 Glutamax and 10% heat inactivated FBS. 50 μl cell suspension containing 1×10^6 cells/ml supplemented with 50 μM zVAD.fmk (Benzyloxycarbonyl-Val-Ala-Asp (OMe) fluoromethylketone) and 100 ng/ml recombinant human TNFα were dispensed in each well of a 96-well plate. 50 μl of compound dilutions (see above) were added and the cell suspension incubated overnight (18 to 24 hrs) at 37° C., 5% CO2 in a humidified atmosphere (95% rH). High (no compound) and low control (no TNFα, zVAD.fmk) were tested with 7 replicates; all compound concentrations were tested in duplicates on each experimental plate.
# CellTiter 96 Aqueous reagent was mixed (100 μl PMS (phenazine methosulfate) solution/2 ml MTS (3-(4,5-[…])-5-(3-carboxymethoxyphenyl)-2-(4-sulfophenyl)-2H-tetrazolium, inner salt) solution) and 20 μl were added per well. After 4 hrs incubation at 37° C. (5% CO2 95% rH) optical density was measured at 490 nm on a microplate reader (Tecan Infinite M1000).
# The % inhibition is expressed as percentage of the maximal inhibition value obtained in the absence of TNFα/zVAD.fmc.
# [1] = U937 cells, 100 ng/ml TNFα + 50 μM zVAD.fmk, overnight (18 to 24 hrs), read-out: U937 IC50
# [2] = own data, read-out: IC50 (U937)
SMILES,IC50 [1],IC50 [2],"IC50 (own data, read-out: pIC50 (U937) (converted))"
"O=C(C1CCN(c2nccc(-c3ccccc3)n2)CC1)N1N=CCC1c1ccccc1 (centres unmarked) [Comparator Example A, (3-Phenyl-3,4-dihydropyrazol-2-yl)-[1-(4-phenylpyrimidin-2-yl)-4-piperidyl]methanone, reference compound]",8 nM,8 nM,
"O=C(C1CCN(c2nccc(-c3ccccc3)n2)CC1)N1OCC[C@H]1c1ccccc1 [Comparator Example B, [(3S)-3-Phenylisoxazolidin-2-yl]-[1-(4-phenylpyrimidin-2-yl)-4-piperidyl]methanone, reference compound]",9.4 nM,9 nM,
"Cc1nnc(-c2cc(N3CCC(C(=O)N4N=CC[C@H]4c4ccccc4)CC3)ncn2)o1 [Comparator Example C, [1-[6-(5-Methyl-1,3,4-oxadiazol-2-yl)pyrimidin-4-yl]-4-piperidyl]-[(3S)-3-phenyl-3,4-dihydropyrazol-2-yl]methanone, reference compound]",59 nM,,59 nM
"Cc1nnc(-c2cc(N3CCC(C(=O)N4OCC[C@H]4c4ccccc4)CC3)ncn2)o1 [Comparator Example D, [1-[6-(5-Methyl-1,3,4-oxadiazol-2-yl)pyrimidin-4-yl]-4-piperidyl]-[(3S)-3-phenylisoxazolidin-2-yl]methanone, reference compound]",92 nM,92 nM,
"Cc1nnc(-c2cc(N3CCC(C(=O)N4OCC[C@H]4c4cc(F)cc(C#N)c4)CC3)ncn2)o1 [Comparator Example E, 3-Fluoro-5-[(3S)-2-[1-[6-(5-methyl-1,3,4-oxadiazol-2-yl)pyrimidin-4-yl]piperidine-4-carbonyl]isoxazolidin-3-yl]benzonitrile, reference compound]",197 nM,197 nM,
"Cc1nccn1-c1cc(N2CCC(C(=O)N3OCC[C@H]3c3cc(F)cc(C#N)c3)CC2)ncn1 [Example 1, 3-Fluoro-5-[(3S)-2-[1-[6-(2-methylimidazol-1-yl)pyrimidin-4-yl]piperidine-4-carbonyl]isoxazolidin-3-yl]benzonitrile]",5.9 nM,,
"Cc1c(F)cc([C@@H]2CCON2C(=O)C2CCN(c3cc(-n4ccnc4C)ncn3)CC2)cc1C#N [Example 2, 3-Fluoro-2-methyl-5-[(3S)-2-[1-[6-(2-methylimidazol-1-yl)pyrimidin-4-yl]piperidine-4-carbonyl]isoxazolidin-3-yl]benzonitrile]",3.8 nM,,
"Cn1nccc1-c1cc(N2CCC(C(=O)N3OCC[C@H]3c3cc(F)cc(C#N)c3)CC2)ncn1 [Example 3, 3-Fluoro-5-[(3S)-2-[1-[6-(2-methylpyrazol-3-yl)pyrimidin-4-yl]piperidine-4-carbonyl]isoxazolidin-3-yl]benzonitrile]",8.1 nM,,
"Cn1nccc1-c1cc(N2CCC(C(=O)N3OCC[C@H]3c3cc(F)cc(F)c3)CC2)ncn1 [Example 4, [(3S)-3-(3,5-Difluorophenyl)isoxazolidin-2-yl]-[1-[6-(2-methylpyrazol-3-yl)pyrimidin-4-yl]-4-piperidyl]methanone]",5 nM,,
"Cn1nccc1-c1cc(N2CCC(C(=O)N3OCC[C@H]3c3cc(F)cc(Cl)c3)CC2)ncn1 [Example 5, [(3S)-3-(3-Chloro-5-fluoro-phenyl)isoxazolidin-2-yl]-[1-[6-(2-methylpyrazol-3-yl)pyrimidin-4-yl]-4-piperidyl]methanone]",3 nM,,
"Cc1n[nH]cc1-c1cc(N2CCC(C(=O)N3OCC[C@H]3c3cc(F)cc(C#N)c3)CC2)ncn1 [Example 6, 3-Fluoro-5-[(3S)-2-[1-[6-(3-methyl-1H-pyrazol-4-yl)pyrimidin-4-yl]piperidine-4-carbonyl]isoxazolidin-3-yl]benzonitrile]",11.7 nM,,
"Cc1nc(C2CC2)cn1-c1cc(N2CCC(C(=O)N3OCC[C@H]3c3cc(F)cc(C#N)c3)CC2)ncn1 [Example 7, 3-[(3S)-2-[1-[6-(4-Cyclopropyl-2-methyl-imidazol-1-yl)pyrimidin-4-yl]piperidine-4-carbonyl]isoxazolidin-3-yl]-5-fluoro-benzonitrile]",3.6 nM,,
"Cc1c(F)cc([C@@H]2CCON2C(=O)C2CCN(c3cc(-n4cc(C5CC5)nc4C)ncn3)CC2)cc1C#N [Example 8, 5-[(3S)-2-[1-[6-(4-Cyclopropyl-2-methyl-imidazol-1-yl)pyrimidin-4-yl]piperidine-4-carbonyl]isoxazolidin-3-yl]-3-fluoro-2-methyl-benzonitrile]",1 nM,1 nM,
"Cc1cc(-c2cc(N3CCC(C(=O)N4OCC[C@H]4c4cc(F)cc(C#N)c4)CC3)ncn2)n(C)n1 [Example 9, 3-[(3S)-2-[1-[6-(2,5-Dimethylpyrazol-3-yl)pyrimidin-4-yl]piperidine-4-carbonyl]isoxazolidin-3-yl]-5-fluoro-benzonitrile]",15 nM,,
"Cc1ncn(-c2cc(N3CCC(C(=O)N4OCC[C@H]4c4cc(F)cc(C#N)c4)CC3)ncn2)n1 [Example 10, 3-Fluoro-5-[(3S)-2-[1-[6-(3-methyl-1,2,4-triazol-1-yl)pyrimidin-4-yl]piperidine-4-carbonyl]isoxazolidin-3-yl]benzonitrile]",2 nM,,
"Cc1ncnn1-c1cc(N2CCC(C(=O)N3OCC[C@H]3c3cc(F)cc(C#N)c3)CC2)ncn1 [Example 11, 3-Fluoro-5-[(3S)-2-[1-[6-(5-methyl-1,2,4-triazol-1-yl)pyrimidin-4-yl]piperidine-4-carbonyl]isoxazolidin-3-yl]benzonitrile]",9.3 nM,,
"Cn1nncc1-c1cc(N2CCC(C(=O)N3OCC[C@H]3c3cc(F)cc(C#N)c3)CC2)ncn1 [Example 12, 3-Fluoro-5-[(3S)-2-[1-[6-(3-methyltriazol-4-yl)pyrimidin-4-yl]piperidine-4-carbonyl]isoxazolidin-3-yl]benzonitrile]",7 nM,,
"Cc1nccn1-c1ncnc(N2CCC(C(=O)N3OCC[C@H]3c3cc(F)cc(C#N)c3)CC2)c1F [Example 13, 3-Fluoro-5-[(3S)-2-[1-[5-fluoro-6-(2-methylimidazol-1-yl)pyrimidin-4-yl]piperidine-4-carbonyl]isoxazolidin-3-yl]benzonitrile]",4.3 nM,,
"Cc1cnn(-c2ncnc(N3CCC(C(=O)N4OCC[C@H]4c4cc(F)c(C)c(C#N)c4)CC3)c2F)c1 [Example 14, 3-Fluoro-5-[(3S)-2-[1-[5-fluoro-6-(4-methylpyrazol-1-yl)pyrimidin-4-yl]piperidine-4-carbonyl]isoxazolidin-3-yl]-2-methyl-benzonitrile]",3.4 nM,,
"Cn1nccc1-c1ncnc(N2CCC(C(=O)N3OCC[C@H]3c3cc(F)cc(F)c3)CC2)c1F [Example 15, [(3S)-3-(3,5-Difluorophenyl)isoxazolidin-2-yl]-[1-[5-fluoro-6-(2-methylpyrazol-3-yl)pyrimidin-4-yl]-4-piperidyl]methanone]",0.4 nM,,

# From patent US11897876B2, “Isoxazolidines as RIPK1 inhibitors and use thereof” (GENZYME CORPORATION, priority 2022, dated 2024)
